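All cell lines were grown in 96-well plates and treated with compound for 48 hours. GI50 marks 50% less growth.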 Calls of active or inactive are those of the source. Rule as the data show it: active = GI50 up to about 1.1 µM and inactive = higher.

Test systems include COLO 205; EKVX; HCC 2998; HCT-116; HL-60; HOP-92; LOX IMVI; MCF7; MDA-MB-435; NCI-H23; NCI-H460; NCI-H522; NCI/ADR-RES; PC-3; RPMI-8226; SK-MEL-2; SNB-75; T47D; UACC-257.
Experiment in all cases: NCI-60 cell line screen, 48 h

Turning to `CCOP(=O)(OCC)/C(C#N)=C/c1cccn1N(C)C`, the GI50 with COLO 205 is > 100 µM (inactive); in the assay on EKVX, > 100 µM (inactive); in the assay with HCC 2998 it was > 100 µM (inactive); in the assay with HCT-116, 3.37 µM (inactive); with HL-60, > 100 µM (inactive); in the assay on HOP-92, > 100 µM (inactive). For the same molecule, the GI50 in the assay with LOX IMVI, in the assay on MCF7, in the assay on MDA-MB-435, in the assay on NCI-H23, with NCI-H460 and in the assay with NCI-H522 was > 100 µM (inactive) in each case. Further, the GI50 in the assay on NCI/ADR-RES was > 100 µM (inactive); in the assay with PC-3, > 100 µM (inactive); in the assay with RPMI-8226, > 100 µM (inactive); with SK-MEL-2, > 100 µM (inactive); with SNB-75, > 100 µM (inactive); in the assay with T47D it was 47.6 µM (inactive). In addition, the GI50 with UACC-257 was > 100 µM (inactive).
Consider `Cc1cc(=O)n2nc(CSc3nnc(N)s3)sc2n1`, for which the GI50 in the assay with COLO 205, in the assay with EKVX, in the assay with HCC 2998, in the assay with HCT-116, in the assay with HL-60 and in the assay with HOP-92 was > 100 µM (inactive) each time. Also, the GI50 with LOX IMVI, with MCF7, in the assay on MDA-MB-435, in the assay with NCI-H23, in the assay on NCI-H460 and with NCI-H522 was > 100 µM (inactive) each time. For the same molecule, the GI50 with NCI/ADR-RES, in the assay on PC-3, with RPMI-8226, with SK-MEL-2, with SNB-75 and in the assay with T47D was > 100 µM (inactive) each time. In addition, in the assay with UACC-257, the GI50 was > 100 µM (inactive).
As for `O=c1ssc2c1Nc1c(ssc1=O)S2`, the GI50 was 18 µM (inactive) with COLO 205; 15.4 µM (inactive) with EKVX; 15.1 µM (inactive) with HCC 2998; 15.4 µM (inactive) in the assay with HCT-116; 4.48 µM (inactive) in the assay with HL-60; 15 µM (inactive) in the assay with HOP-92. Further, the GI50 in the assay on LOX IMVI is 5.37 µM (inactive); with MCF7, 16.4 µM (inactive); with MDA-MB-435, 18.5 µM (inactive); with NCI-H23, 18.7 µM (inactive); in the assay on NCI-H460 it was 17.3 µM (inactive); in the assay on NCI-H522, 8.28 µM (inactive). For the same molecule, the GI50 is 19.6 µM (inactive) with NCI/ADR-RES; 12.6 µM (inactive) in the assay with PC-3; 5.04 µM (inactive) in the assay with RPMI-8226; 16.1 µM (inactive) in the assay with SK-MEL-2; 16.5 µM (inactive) in the assay with SNB-75; 10.7 µM (inactive) in the assay on T47D. Further, the GI50 in the assay with UACC-257 is 14.6 µM (inactive).
Regarding `COc1ccc(C2SCC(=O)N2NC(=O)C(C)Oc2ccc(Cl)cc2Cl)cc1` (centres undefined), the GI50 was 73.8 µM (inactive) with COLO 205; 60 µM (inactive) in the assay with EKVX; 55.6 µM (inactive) in the assay on HCC 2998; 36.6 µM (inactive) in the assay on HCT-116; 14.2 µM (inactive) with HL-60; 21.1 µM (inactive) in the assay on HOP-92. Also, the GI50 with LOX IMVI was 41.1 µM (inactive); with MCF7 it was 32.1 µM (inactive); with MDA-MB-435, 76.7 µM (inactive); in the assay with NCI-H23, 64.9 µM (inactive); with NCI-H460, 81.1 µM (inactive); with NCI-H522 it was 91.2 µM (inactive). Also, the GI50 is 56.6 µM (inactive) with NCI/ADR-RES; 27.4 µM (inactive) in the assay on PC-3; 30.7 µM (inactive) with RPMI-8226; 50.2 µM (inactive) in the assay with SK-MEL-2; 22 µM (inactive) in the assay with SNB-75; 28.4 µM (inactive) with T47D. Moreover, in the assay with UACC-257, the GI50 is 42.4 µM (inactive).
Take `CC(C)(C)OC(=O)N1CC(CCl)c2ccc(O)cc21` (centres undefined): the GI50 in the assay with COLO 205 was 1.81 µM (inactive); with EKVX it was 2.75 µM (inactive); in the assay on HCC 2998, 0.0223 µM (active); in the assay on HCT-116, 2.64 µM (inactive); in the assay with HL-60 it was 1.87 µM (inactive); with HOP-92, 2.42 µM (inactive). In addition, the GI50 in the assay with LOX IMVI is 1.76 µM (inactive); in the assay with MCF7, 0.753 µM (active); in the assay with MDA-MB-435, 1.99 µM (inactive); in the assay on NCI-H23, 1.04 µM (active); in the assay with NCI-H460 it was 2.67 µM (inactive); in the assay with NCI-H522, 0.612 µM (active). The GI50 with NCI/ADR-RES is 1.59 µM (inactive); in the assay on PC-3, 1.87 µM (inactive); in the assay on RPMI-8226, 1.75 µM (inactive); in the assay on SK-MEL-2 it was 1.7 µM (inactive); in the assay with SNB-75, 1.39 µM (inactive); in the assay with T47D, 3.03 µM (inactive). The GI50 in the assay with UACC-257 is 2.01 µM (inactive).
Turning to `CO[C@]12C[C@H](CNC(=O)c3cc(Br)c(Br)[nH]3)O[C@H]1NC(=O)N2`, the GI50 in the assay on COLO 205 was > 100 µM (inactive); in the assay on EKVX, > 100 µM (inactive); with HCC 2998, > 100 µM (inactive); in the assay with HCT-116, > 100 µM (inactive); in the assay with HL-60 it was > 100 µM (inactive); in the assay with HOP-92, 25.2 µM (inactive). Further, the GI50 in the assay on LOX IMVI, with MCF7, in the assay on MDA-MB-435, in the assay on NCI-H23, in the assay on NCI-H460 and in the assay on NCI-H522 was > 100 µM (inactive) throughout. Besides, the GI50 with NCI/ADR-RES, with PC-3, with RPMI-8226, in the assay on SK-MEL-2, in the assay with SNB-75 and in the assay with T47D was > 100 µM (inactive) in each case. For the same molecule, the GI50 with UACC-257 is > 100 µM (inactive).
In the case of `C=CCN1C(=O)/C(=C/c2ccc(OC)cc2)N=C1SC/C=C/C`, the GI50 in the assay with COLO 205 is 29.2 µM (inactive); in the assay with EKVX, 33.5 µM (inactive); in the assay on HCC 2998, 63.2 µM (inactive); in the assay on HCT-116, 25.4 µM (inactive); with HL-60 it was 20 µM (inactive); in the assay on HOP-92 it was 24 µM (inactive). The GI50 was 31.6 µM (inactive) in the assay with LOX IMVI; 32.1 µM (inactive) with MCF7; 33.3 µM (inactive) in the assay on MDA-MB-435; 41.5 µM (inactive) in the assay on NCI-H23; 61.9 µM (inactive) in the assay with NCI-H460; 28.1 µM (inactive) in the assay on NCI-H522. Moreover, the GI50 was 39 µM (inactive) in the assay on NCI/ADR-RES; 30.4 µM (inactive) in the assay on PC-3; 26.2 µM (inactive) in the assay on RPMI-8226; 31.5 µM (inactive) in the assay on SK-MEL-2; 31.2 µM (inactive) with SNB-75; 12.6 µM (inactive) in the assay on T47D. Besides, the GI50 with UACC-257 is 36.7 µM (inactive).
Take `OC(c1cccs1)c1cc2ccccc2s1` (centres undefined): the GI50 in the assay on COLO 205, in the assay on EKVX, with HCC 2998, in the assay with HCT-116, in the assay on HL-60 and in the assay with HOP-92 was > 10 µM (inactive) each time. In addition, the GI50 with LOX IMVI, with MCF7, in the assay on MDA-MB-435, with NCI-H23, in the assay with NCI-H460 and in the assay on NCI-H522 was > 10 µM (inactive) in each case. Also, the GI50 in the assay with NCI/ADR-RES, in the assay with PC-3, in the assay with RPMI-8226, in the assay with SK-MEL-2, in the assay on SNB-75 and in the assay with T47D was > 10 µM (inactive) throughout. For the same molecule, in the assay on UACC-257, the GI50 is > 10 µM (inactive).
As to `S=C(N/N=C(/c1ccccc1)c1ccccn1)Nc1ccccc1Cl`, the GI50 with COLO 205 is < 0.01 µM (active); in the assay on EKVX, 0.0785 µM (active); in the assay on HCC 2998, 0.673 µM (active); in the assay on HCT-116, < 0.01 µM (active); in the assay with HL-60, < 0.0865 µM (active); with HOP-92 it was 0.226 µM (active). The GI50 with LOX IMVI is 0.0418 µM (active); in the assay with MCF7 it was < 0.01 µM (active); in the assay on MDA-MB-435, 0.265 µM (active); with NCI-H23 it was < 0.0175 µM (active); in the assay on NCI-H460 it was 0.101 µM (active); with NCI-H522, < 0.0446 µM (active). The GI50 in the assay on NCI/ADR-RES was < 0.01 µM (active); in the assay with PC-3 it was < 0.01 µM (active); in the assay on RPMI-8226, < 0.0448 µM (active); in the assay with SK-MEL-2, 0.148 µM (active); in the assay with SNB-75, 6.64 µM (inactive); in the assay with T47D it was < 0.01 µM (active). In the assay on UACC-257, the GI50 was < 0.01 µM (active).
As to `NNC(=O)Cc1cccnc1`, the GI50 in the assay on COLO 205, in the assay on EKVX, in the assay on HCC 2998, in the assay on HCT-116, in the assay with HL-60 and in the assay on HOP-92 was > 100 µM (inactive) in each case. Moreover, the GI50 in the assay on LOX IMVI, in the assay on MCF7, in the assay with MDA-MB-435, in the assay with NCI-H23, in the assay on NCI-H460 and in the assay on NCI-H522 was > 100 µM (inactive) throughout. Further, the GI50 in the assay with NCI/ADR-RES, with PC-3, in the assay with RPMI-8226, in the assay with SK-MEL-2, in the assay with SNB-75 and in the assay on T47D was > 100 µM (inactive) in each case. Besides, the GI50 in the assay with UACC-257 is > 100 µM (inactive).
Turning to `Cc1cc2c(cc1-c1cc3c(cc1C)C(C(C)C)=C(O)C(=O)/C3=C\Nc1ccccn1)/C(=C/Nc1ccccn1)C(=O)C(O)=C2C(C)C`, the GI50 was > 100 µM (inactive) with COLO 205; 37.8 µM (inactive) in the assay on EKVX; 22.5 µM (inactive) in the assay on HCC 2998; 64.7 µM (inactive) with HCT-116; 27.4 µM (inactive) in the assay on HL-60; > 100 µM (inactive) in the assay with HOP-92. Further, the GI50 in the assay on LOX IMVI is 35.4 µM (inactive); in the assay with MCF7 it was 52.5 µM (inactive); in the assay with MDA-MB-435, 43.5 µM (inactive); with NCI-H23, 46.9 µM (inactive); in the assay with NCI-H460, 43.2 µM (inactive); with NCI-H522, 21.8 µM (inactive). For the same molecule, the GI50 with NCI/ADR-RES is 27.9 µM (inactive); in the assay on PC-3 it was 41.7 µM (inactive); in the assay with RPMI-8226, 21.7 µM (inactive); with SK-MEL-2, 37.8 µM (inactive); with SNB-75, 63.4 µM (inactive); in the assay with T47D, > 100 µM (inactive). Besides, in the assay on UACC-257, the GI50 is > 100 µM (inactive).

These data come from ChEMBL document CHEMBL1201862, “PubChem BioAssay data set” (2004).
